This assay deals with Human immunodeficiency virus 1. Put plainly: Antiviral activity against HIV-1 pseudovirus infected in HEK293T cells transfected with DC-SIGN assessed as inhibition of viral entry into cells at 500 uM preincubated with compound for 2 hrs followed by viral addition and measured after 4 hrs by p24 ELISA relative to control. It counts as functional. Conditions: Human immunodeficiency virus 1, HEK-293T, time 6 hrs. On the technique in general: ELISA stands for enzyme-linked immunosorbent assay.

The term inhibition denotes the percentage by which the read-out fell short of the control. For `[N-]=[N+]=NCCO[C@H]1O[C@H](CO[C@H]2O[C@H](CO)[C@@H](O)[C@H](O)[C@@H]2O[C@H]2O[C@H](CO)[C@@H](O)[C@H](O)[C@@H]2O)[C@@H](O)[C@H](O[C@H]2O[C@H](CO)[C@@H](O)[C@H](O)[C@@H]2O[C@H]2O[C@H](CO)[C@@H](O)[C@H](O)[C@@H]2O)[C@@H]1O`, the inhibition at 500 µM turned out to be 15%.

The record behind these values is ChEMBL document CHEMBL5518201, “Glycan-Modified Peptides for Dual Inhibition of Human Immunodeficiency Virus Entry into Dendritic Cells and T Cells” (J Med Chem, 2024).
